Results: patent US5079257A, “Indoloquinone compounds” (priority 1986, dated 1992)
Values after ≈ are worked out from the molar mass of the structure shown. Read-outs that look alike come from different tables or passages of the source.

Key:
[1] = test system: R-1 cells (Rhabdomyosarcoma Cells); assay: R-1 activity (bioliquid assay), cytotoxicity; format: cell-based; details: for IC50: Rhabdomyosarcoma cell
Text: The indoloquinones II (formula II) have been tested in respect of their cytotoxic activity against L1210 cells and R-1 cells (Rhabdomyosarcoma Cells) in a bioliquid assay at the department of oncology of the Free University of Amsterdam (Table I). […] (Table II). Eight indoloquinones (E.O. 1, E.O. 2, E.O. 4, E.O. 4A, E.O. 8, E.O. 9, E.O. 33 and E.O. 35) have been tested in a panel of five human tumour lines (TNO Rijswijk; Table III).
For the determination of the R-1 activity, Rhabdomyosarcoma cells were brought into Falcon multiwells (growth area: 9.6 cm^2) (~10^6 cells per dish) containing 3 ml of Dulbecco's medium supplemented with 10% Foeto Calf Serum (FCS). […] Thereupon the drug solution was removed and the cells were covered with fresh medium. After 48 hours the cells were trypsinized and counted on a Sysmex microcell counter (CC110).
(§1) The in vitro L1210 and R-1 activities of the indoloquinones (formula III), were also determined in the bioliquid assays as described above.

L1210 cells = assay: L1210 activity (bioliquid assay), cytotoxicity; format: cell-based; details: for IC50: Mus musculus; for ID-50 L1210: 2880 min
Text: The indoloquinones II (formula II) have been tested in respect of their cytotoxic activity against L1210 cells and R-1 cells (Rhabdomyosarcoma Cells) in a bioliquid assay at the department of oncology of the Free University of Amsterdam (Table I). In addition to this seven compounds (E.O. 1, E.O. 2, E.O. 4, E.O. 7, E.O. 9, E.O. 16 and E.O. 17) have been tested on L1210 activity in a clonogenic assay at TNO, Rijswijk. Further, the lowest active doses of the compounds E.O. 1, E.O. 2, E.O. 4 and E.O. 9 have been determined at TNO Rijswijk, according to the method described by Lamberts et al. [Oncology, 40, 301 (1983)]. (Table II). Eight indoloquinones (E.O. 1, E.O. 2, E.O. 4, E.O. 4A, E.O. 8, E.O. 9, E.O. 33 and E.O. 35) have been tested in a panel of five human tumour lines (TNO Rijswijk; Table III). From the latter group three indoloquinones (E.O. 1, E.O. 4 and E.O. 9) have been selected for a cytotoxicity study, involving five slowly growing human tumour lines (University of Freiburg; Table IV).
For this purpose, L1210 cells were grown, as suspension, in Falcon multi-wells (growth area: 9.6 cm^2) using RPMI supplemented with 15% FCS and 2-mercapto-ethanol (60 μmol) as medium. In this medium, the cells were continuously incubated with the compound to be tested at 37° C. in an atmosphere of 5% CO2 in humidified air for 48 hours. Thereupon they were counted on a Sysmex microcell counter (CC110).
as §1

[2] = Table I, bioliquid assay, read-out: ID-50 R-1
[3] = L1210, Table I, bioliquid assay, 48 hours, read-out: ID-50 L1210
[4] = Table IA, para-indoloquinone diesters, read-out: ID-50 R-1
[5] = L1210, 48 h, Table IA, para-indoloquinone diesters, read-out: ID-50 L1210
[6] = read-out: ID-50 R-1, Table VIII
[7] = L1210, 48 h, read-out: ID-50 L1210, Table VIII

| SMILES | IC50 [1, 2] | IC50 (L1210 cells; [3]) | ID-50 L1210 (L1210 cells; Table VI) | other results |
| --- | --- | --- | --- | --- |
| CCCCNC(=O)OC/C=C/c1c(COC(=O)NCCCC)c2c(n1C)C(=O)C=C(OC)C2=O [E.O. 37, 3-[N-butylcarbamoyloxymethyl]-5-methoxy-1-methyl-2-[1H-indole-4,7-dione]prop-β-en-α-yl N-butylcarbamate] | 6.5 µg/mL (≈ 13.7 µM) | > 10 µg/mL |  | ID-50 L1210 (L1210 cells; Table VII): > 10 µg/mL |
| COC1=C(C)C(=O)c2c(c(CO)c(/C=C/CO)n2C)C1=O [E.O. 18, 1,6-Dimethyl-5-hydroxymethyl-5-methoxy-2-[1H-indole-4,7-dione]prop-β-en-α-ol] | 2.2 µg/mL (≈ 7.55 µM) | 2.4 µg/mL (≈ 8.24 µM) |  |  |
| CCNC1=CC(=O)c2c(c(CO)c(/C=C/CO)n2C)C1=O [E.O. 56, 5-Ethylamino-3-hydroxymethyl-1-methyl-2-[1H-indole-4,7-dione]prop-β-en-α-ol] | > 10 µg/mL | 5.1 µg/mL (≈ 17.6 µM) |  | IC50 ([1]; Table VI, read-out: ID-50 R-1): > 10 µg/mL |
| CCNC1=CC(=O)c2c(c(C(=O)OC)c(/C=C/C(=O)OC)n2C)C1=O [E.O. 57, Methyl 5-ethylamino-3-methoxycarbonyl-1-methyl-2-[1H-indole-4,7-dione]acrylate] |  |  |  | IC50 [1, 4]: 3.2 µg/mL (≈ 9.24 µM); IC50 (L1210 cells; [5]): 1.4 µg/mL (≈ 4.04 µM) |
| CC(=O)OCc1c2c(n(C)c1/C=C/CO)C(=O)C=C(NCCc1ccccn1)C2=O [E.O. 62, 3-Acetoxymethyl-1-methyl-5-[2-pyridylethyl-1-amino]-2-[1H-indole-4,7-dione]prop-β-en-α-ol] | > 10 µg/mL | > 10 µg/mL | > 10 µg/mL | IC50 ([1]; Table VI, read-out: ID-50 R-1): > 10 µg/mL |
| Cn1c(/C=C/CO)c(CO)c2c1C(=O)C=C(Nc1ccccc1)C2=O [E.O. 15, 3-Hydroxymethyl-5-phenylamino-1-methyl-2-[1H-indole-4,7-dione]prop-β-en-α-ol] |  | 0.7 µg/mL (≈ 2.07 µM) |  |  |
| COC(=O)/C=C/c1c(C(=O)OC)c2c(n1C)C(=O)C(C)=C(OC)C2=O [E.O. 32, Methyl 1,6-dimethyl-5-methoxy-3-methoxycarbonyl-2-[1H-indole-4,7-dione]acrylate] |  |  |  | IC50 [1, 4]: > 10 µg/mL; IC50 (L1210 cells; [5]): 3.5 µg/mL (≈ 10.1 µM) |
| COCc1c2c(n(C)c1/C=C/COC(=O)NCCCl)C(=O)C=C(OC)C2=O [E.O. 10, 5-Methoxy-3-methoxymethyl-1-methyl-2-[1H-indole-4,7-dione]prop-β-en-α-yl N-[2-chloro-1-ethyl]carbamate] | > 10 µg/mL | > 10 µg/mL |  | ID-50 R-1 ([1]; Table VII): > 10 µg/mL; ID-50 L1210 (L1210 cells; Table VII): > 10 µg/mL |
| CC(=O)OC/C=C/c1c(COC(C)=O)c2c(n1C)C(=O)C=C(NCCc1ccccn1)C2=O [E.O. 52, 3-Acetoxymethyl-1-methyl-5-[2-pyridylethyl-1-amino]-2-[1H-indole-4,7-dione]prop-β-en-α-yl acetate] | 3.3 µg/mL | > 10 µg/mL | > 10 µg/mL | R-1 activity [1]: rather high activities |
| CC(=O)OC/C=C/c1c(COC(C)=O)c2c(n1C)C(=O)C=C(NCCO)C2=O [E.O. 5, 3-Acetoxymethyl-5-(2-hydroxyethyl-1-amino)-1-methyl-2-[1H-indole-4,7-dione]prop-β-en-αyl acetate] | > 10 µg/mL | > 10 µg/mL | > 10 µg/mL | IC50 ([1]; Table VI, read-out: ID-50 R-1): > 10 µg/mL |
| COC1=CC(=O)c2c(c(CO)c(/C=C/COC(C)=O)n2C)C1=O [E.O. 1A, 3-Hydroxymethyl-5-methoxy-1-methyl-2-[1H-indole-4,7-dione]prop-β-en-α-yl acetate] | 3.2 µg/mL | 2.8 µg/mL |  |  |
| CC(=O)OCc1c2c(n(C)c1/C=C/CO)C(=O)C=C(NCCN(C)C)C2=O [E.O. 48, 3-Acetoxymethyl-5-[2-(N,N-dimethylamino)ethyl-1-amino]-1-methyl-2-[1H-indole-4,7-dione]prop-β-en-α-ol] | > 10 µg/mL | > 10 µg/mL | > 10 µg/mL | IC50 ([1]; Table VI, read-out: ID-50 R-1): > 10 µg/mL |
| COC1=CC(=O)c2c(c(CNc3ccccc3)c(/C=C/COC(C)=O)n2C)C1=O [E.O. 39, 5-Methoxy-1-methyl-3-(N-phenylaminomethyl)-2-[1H-indole-4,7-dione]prop-β-en-α-yl acetate] | 1 µg/mL | 10 µg/mL |  | R-1 activity [1]: rather high R-1 activity |
| Cn1c(/C=C/CO)c(CO)c2c1C(=O)C=C(NCCc1ccccn1)C2=O [E.O. 51, 3-Hydroxymethyl-1-methyl-5-[2-pyridylethyl-1-amino]-2-[1H-indole-4,7-dione]prop-β-en-α-ol] | 4.5 µg/mL (≈ 12.2 µM) | > 10 µg/mL | > 10 µg/mL |  |
| CC1=C(N2CC2)C(=O)c2c(CO)c(/C=C/CO)n(C)c2C1=O [E.O. 19, 5-Aziridino-1,6-dimethyl-3-hydroxymethyl-2-[1H-indole-4,7-dione]prop-β-en-α-ol] |  |  |  | IC50 ([1]; read-out: ID-50 R-1, Table I, bioliquid assay): 0.1 µg/mL (≈ 0.331 µM); IC50 [1, 6]: 0.12 µg/mL (≈ 0.397 µM); IC50 (L1210 cells; [7]): 2 µg/mL (≈ 6.62 µM) |
| COC1=CC(=O)c2c(c(COC(=O)Nc3ccccc3)c(/C=C/COC(=O)Nc3ccccc3)n2C)C1=O [E.O. 38, 5-Methoxy-1-methyl-3-[N-phenylcarbamoyloxymethyl]-2-[1H-indole-4,7-dione]prop-β-en-α-yl N-phenylcarbamate] | 8.5 µg/mL (≈ 16.5 µM) | > 10 µg/mL |  | ID-50 L1210 (L1210 cells; Table VII): > 10 µg/mL |
| COC1=CC(=O)c2c(c(COC(=O)NCCCl)c(/C=C/COC(=O)NCCCl)n2C)C1=O [E.O. 13, 3-(N-chloroethylcarbamoyloxymethyl)-5-methoxy-1-methyl-2-[1H-indole-4,74,7-dione]prop-β-en-α-yl N-chloroethyl carbamate] | 1.1 µg/mL (≈ 2.25 µM) | 10 µg/mL (≈ 20.5 µM) |  |  |
| CCNC1=CC(=O)c2c(c(COC(C)=O)c(/C=C/CO)n2C)C1=O [E.O. 59, 3-Acetoxymethyl-5-ethylamino-1-methyl-2-[1H-indole-4,7-dione]prop-β-en-α-ol] | > 10 µg/mL | > 10 µg/mL |  |  |
| CC(=O)OC/C=C/c1c(COC(C)=O)c2c(n1C)C(=O)C=C(NCCN(C)C)C2=O [E.O. 47, 3-Acetoxymethyl-5-[2-(N,N-dimethylamino)ethyl-1-amino]-1-methyl-2-[1H-indole-4,7-dione]prop-β-en-α-yl acetate] | 4.4 µg/mL | > 10 µg/mL | > 10 µg/mL | R-1 activity [1]: rather high activities |
| COC1=CC(=O)c2c(c(COC(N)=O)c(/C=C/COC(N)=O)n2C)C1=O [E.O. 3, 3-Carbamoyloxymethyl-5-methoxy-1-methyl-2-[1H-indole-4,7-dione]prop-β-en-α-yl carbamate] | > 10 µg/mL | 8 µg/mL (≈ 22 µM) |  |  |
| CC(=O)OC/C=C/c1c(COC(C)=O)c2c(n1C)C(=O)C=C(N1CC1C)C2=O (stereo not drawn) [E.O. 53, 3-Acetoxymethyl-1-methyl-5-propyleneamino-2-[1H-indole-4,7-dione]prop-β-en-α-yl acetate] |  |  |  | IC50 [1, 6]: 1.4 µg/mL; IC50 (L1210 cells; [7]): 3.4 µg/mL |
| COC1=CC(=O)c2c(c(COC(=O)c3ccccc3)c(/C=C/COC(=O)c3ccccc3)n2C)C1=O [E.O. 36, 3-Benzoxymethyl-5-methoxy-1-methyl-2-[1H-indole-4,7-dione]prop-β-en-α-yl benzoate] | 2.6 µg/mL (≈ 5.36 µM) | 0.7 µg/mL (≈ 1.44 µM) |  |  |
| COC1=CC(=O)c2c(c(COC(C)=O)c(/C=C/CO)n2C)C1=O [E.O. 1B, 3-Acetoxymethyl-5-methoxy-1-methyl-2-[1H-indole-4,7-dione]prop-β-en-α-ol] | 0.05 µg/mL (≈ 0.157 µM) | 0.9 µg/mL (≈ 2.82 µM) |  |  |
| COC1=CC(=O)c2c(c(C)c(/C=C/COC(C)=O)n2C)C1=O [E.O. 41, 5-Methoxy-1,3-dimethyl-2-[1H-indole-4,7-dione]prop-β-en-α-yl acetate] | > 10 µg/mL | > 10 µg/mL |  | IC50 ([1]; Table VII, read-out: ID-50 R-1): > 10 µg/mL; ID-50 L1210 (L1210 cells; Table VII): > 10 µg/mL |
| CC(=O)OC/C=C/c1c(COC(C)=O)c2c(n1C)C(=O)C=C(N1CCOCC1)C2=O [E.O. 60, 3-Acetoxymethyl-1-methyl-5-morpholino-2-[1H-indole-4,7-dione]prop-β-en-α-yl acetate] | 3.3 µg/mL | > 10 µg/mL | > 10 µg/mL |  |
| CCNC1=CC(=O)c2c(c(COC(C)=O)c(/C=C/COC(C)=O)n2C)C1=O [E.O. 58, 3-Acetoxymethyl-5-ethylamino-1-methyl-2-[1H-indole-4,7-dione]prop-β-en-α-yl acetate] | > 10 µg/mL | > 10 µg/mL | > 10 µg/mL | IC50 ([1]; Table VI, read-out: ID-50 R-1): > 10 µg/mL |
